Here are results for one compound from publication PMC5995184, “Potent anti-leukemic activity of a specific cyclin-dependent kinase 9 inhibitor in mouse models of chronic lymphocytic leukemia” (Oncotarget, 2018).

This data set concerns blood and splenic leukocytes of wild-type mice. Put plainly: Wild-type littermate control mice, oral LDC526, blood and spleen analysis. The class given is in vivo. The source says: Another widely used preclinical CLL model are TCL1 transgenic mice. The TCL1 transgenics represent a constitutive CLL model not involving the adoptive transfer of cells. This model mirrors the natural course of human IgVH-unmutated CLL including its disease progression. In addition, this model has also been widely used by others to test novel therapeutic molecules. […] Consecutive blood sampling allowed us to carry out a longitudinal study in individual TCL1 and control mice. For this, we chose a cohort of TCL1 and littermate control mice, which were 9-12 months old (Figure 5A). We chose TCL1 transgenics with high peripheral CLL cell (CD19+CD5+) counts (14.6±7.4/nl, mean±SEM). Given the presumably high leukemic burden in these aged TCL1 mice and the reduced general condition of some NSG mice receiving 75 mg/kg for 5 days we decided to dose TCL1 mice with 50 mg/kg daily for two consecutive days (Figure 5A). As the experiment was longitudinally designed and there was no effect expected of administering carrier to wild-type control mice we omitted this control group and established three experimental groups (Figure 5A). In order to minimize stress by collecting blood specimens we sampled blood three times, 8 days apart (days -5, +3 and +11; Figure 5A). Compared to blood smears prepared before commencing LDC526 treatment a marked decrease of peripheral blood leukocytes and CLL cells was observed two days post the last LDC526 administration to TCL1 transgenic mice (Figure 5B). In contrast to the carrier control treated TCL1 mice, white blood cell counts (WBC) dropped in LDC526-treated wild-type and TCL1 mice (Figure 5C). In comparison to wild-type control mice, where WBC dropped to 34% of baseline values, the WBC decrease in TCL1 mice was more dramatic dropping to 8% of baseline values (Figure 5D).
On day +11 (Figure 5A) the experiment was terminated as planned and spleens of the experimental mice were harvested. To be able to assess the impact of LDC526 on wild-type spleens we included n=3 of non-treated age-matched wild-type littermate mice as an additional experimental control group in the final spleen analysis. A caveat of this final spleen analysis posed the fact that in contrast to the longitudinal blood analysis, baseline spleen data of individual aged TCL1 mice were not available. As longitudinal analysis was not possible, we now compared spleen parameters between cohorts. Importantly, it is unknown to which extent the amount of circulating peripheral blood TCL1 CLL cells determined at baseline correlates with splenomegaly. […]
All mice were bred and housed at the University Hospital Essen animal care facility. […] Peripheral blood counts were determined with the VetABC analyzer (scil, Viernheim, Germany). […]

The structures appear in SMILES notation.

As to `COc1cc(F)ccc1-c1ncnc(Nc2cccc(CS(N)(=O)=O)c2)n1` [LDC526, (3-((4-(4-fluoro-2-methoxyphenyl)-1,3,5-triazin-2-yl)amino)phenyl)methane-sulfonamide], the “WBC, percent of baseline values” (50 mg/kg daily for two days, day +3) worked out at 34%. The “concentration of wild-type blood T cells” value (50 mg/kg for two days) was “halved”. Also, the “splenic B cell numbers, percent of untreated mice” value (day +11) amounted to 31%. Moreover, the “B cells, percent of baseline levels” value (peripheral blood) stood at 3.7%.
